The results in this text go back to patent US20030176465A1, “Cyclic amino acid derivatives” (priority 2000, published 2003).

Structures can show the parent of a compound that is named as a salt.

One data set addresses factor Xa, human (Homo sapiens, UniProt P00742). Description: Inhibition of factor Xa (IC50, headed 'Affinity to Receptors'). Type of data set: biochemical. The text has this:
The inhibition of factor Xa by the compounds according to the invention and the measurement of the anticoagulant and antithrombotic activity can be determined by conventional in-vitro or in-vivo methods. A suitable method is described, for example, by J. Hauptmann et al. in Thrombosis and Haemostasis 1990, 63, 220-223.
The inhibition of factor Xa can be measured, for example, by the method of T. Hara et al. in Thromb. Haemostas. 1994, 71, 314-319.

In the next data set the target is TF/VIIa (Homo sapiens, UniProt P08709). Briefly: Inhibition of TF/VIIa (IC50, headed 'Affinity to Receptors'). Type of data set: biochemical. The text has this:
The inhibition of factor VIIa by the compounds according to the invention and the measurement of the anticoagulant and antithrombotic activity can be determined by conventional in-vitro or in-vivo methods. A conventional method for the measurement of the inhibition of factor VIIa is described, for example, by H. F. Ronning et al. in Thrombosis Research 1996, 84, 73-81.

Sequence of TF/VIIa (P08709 213-466 limits assumed): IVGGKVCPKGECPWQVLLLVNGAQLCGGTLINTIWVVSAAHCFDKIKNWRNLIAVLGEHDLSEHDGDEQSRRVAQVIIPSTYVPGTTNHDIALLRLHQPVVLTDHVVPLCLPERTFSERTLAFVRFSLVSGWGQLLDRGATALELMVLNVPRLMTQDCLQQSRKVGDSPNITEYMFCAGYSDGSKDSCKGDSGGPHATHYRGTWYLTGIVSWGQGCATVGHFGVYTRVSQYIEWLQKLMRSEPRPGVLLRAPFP
Sequence of TF/VIIa (P08709 61-212 limits assumed): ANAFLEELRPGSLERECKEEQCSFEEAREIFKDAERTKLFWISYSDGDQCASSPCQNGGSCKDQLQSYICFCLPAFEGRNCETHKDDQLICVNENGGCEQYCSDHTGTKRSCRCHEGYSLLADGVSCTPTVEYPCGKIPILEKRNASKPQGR
Sequence of TF/VIIa (P13726 33-295 partner): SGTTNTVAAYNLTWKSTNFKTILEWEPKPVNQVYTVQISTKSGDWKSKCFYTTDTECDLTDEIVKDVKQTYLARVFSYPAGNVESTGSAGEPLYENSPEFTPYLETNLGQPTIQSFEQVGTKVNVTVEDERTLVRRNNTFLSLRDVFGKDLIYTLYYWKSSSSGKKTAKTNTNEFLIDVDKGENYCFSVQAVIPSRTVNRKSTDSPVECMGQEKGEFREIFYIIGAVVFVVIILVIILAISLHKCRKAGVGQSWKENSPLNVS
Sequence of factor Xa, human (P00742 235-488 limits assumed): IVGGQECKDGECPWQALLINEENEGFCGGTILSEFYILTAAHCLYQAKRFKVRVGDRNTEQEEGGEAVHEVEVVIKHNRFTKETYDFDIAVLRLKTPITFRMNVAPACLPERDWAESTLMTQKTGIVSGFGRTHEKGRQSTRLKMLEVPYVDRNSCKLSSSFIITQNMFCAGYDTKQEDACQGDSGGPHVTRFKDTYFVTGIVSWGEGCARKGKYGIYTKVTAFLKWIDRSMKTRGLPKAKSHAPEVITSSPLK
Sequence of factor Xa, human (P00742 41-179 limits assumed): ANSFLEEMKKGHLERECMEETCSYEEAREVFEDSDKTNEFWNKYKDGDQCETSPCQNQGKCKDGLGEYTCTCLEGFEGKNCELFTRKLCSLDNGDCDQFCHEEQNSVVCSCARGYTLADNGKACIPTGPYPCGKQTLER

Consider `NC(=NO)c1cccc(N2CCCCC2C(=O)Nc2ccc(-c3ccccc3S(N)(=O)=O)cc2)c1` [DA, N-(2′-sulfamoylbiphenyl-4-yl)-(2R,S)-1-[3-(N-hydroxyamidino)phenyl]piperidine-2-carboxamide], for which the melting point – broadly, the temperature of the solid-liquid transition – was 98 °C (dec.). Further, the IC50 (commonly the concentration that inhibits the measured activity by half) against factor Xa, human is 340 nM. This molecule showed an IC50 against TF/VIIa of 440 nM.
On to `Nc1nc(F)c(F)c(N2CCC[C@H]2C(=O)Nc2ccc(-c3ccccc3S(N)(=O)=O)cc2)c1F` (as salt: trifluoroacetate) [AF, N-(2′-sulfamoylbiphenyl-4-yl)-(2S)-1-(2-amino-3,5,6-trifluoropyridin-4-yl)pyrrolidine-2-carboxamide, trifluoroacetate], for which the melting point was 180 °C (dec.).
